Experiments:
SU-DHL-8 = experiment: Cell proliferation assay (MTS); format: cell-based; conditions: Homo sapiens, ABC-DLBCL, 48 h
H209 = experiment: Cell proliferation assay (MTS); format: cell-based; conditions: Homo sapiens, NCI-H209; SCLC
EGFR = molecular target: T1, EGFR (Homo sapiens, UniProt P00533); experiment: KINOMEscan kinase profiling; format: binding; conditions: read-out: Percent Control
T1 construct: purchased DiscoverX KINOMEscan (kinases); BPS Bioscience (epigenetic targets)
Experimental: (§1) Kinase Selectivity Profiling
(§2) (out of which 90 are non-mutant kinases) was performed at DiscoverRx (http://www.discoverx.com/home) using the KINOMEscan™ screening platform at a test concentration of 10 µM. Results for primary screen […]
(§3) positive control signal) / (negative control signal – positive control signal) *100, where negative control corresponds to DMSO treatment (100%) and positive control to the signal obtained with a control competitive compound (0%). […]
(§4) using the Hill equation. Each target was assayed in duplicate. […]

BRAF = molecular target: T2, BRAF (Homo sapiens, UniProt P15056); experiment: KINOMEscan kinase profiling; format: binding; conditions: read-out: Percent Control
T2 construct: purchased DiscoverX KINOMEscan (kinases); BPS Bioscience (epigenetic targets)
Experimental: as §1, §2, §3, §4

JNK3 = molecular target: T3, JNK3 (Homo sapiens, UniProt P53779); experiment: KINOMEscan kinase profiling; format: binding; conditions: read-out: Percent Control
T3 construct: purchased DiscoverX KINOMEscan (kinases); BPS Bioscience (epigenetic targets)
Experimental: as §1, §2, §3, §4

FAK = molecular target: T4, FAK (Homo sapiens, UniProt Q05397); experiment: KINOMEscan kinase profiling; format: binding; conditions: read-out: Percent Control
T4 construct: purchased DiscoverX KINOMEscan (kinases); BPS Bioscience (epigenetic targets)
Experimental: as §1, §2, §3, §4

[1] = molecular target: T5, TYK2(JH1domain-catalytic) (Homo sapiens, UniProt P29597); experiment: KINOMEscan kinase profiling; format: binding; conditions: read-out: Percent Control
T5 construct: TYK2(JH1domain-catalytic); purchased DiscoverX KINOMEscan (kinases); BPS Bioscience (epigenetic targets)
Experimental: as §1, §2, §3, §4

ACVR1B = molecular target: T6, ACVR1B (Homo sapiens, UniProt P36896); experiment: KINOMEscan kinase profiling; format: binding; conditions: read-out: Percent Control
T6 construct: purchased DiscoverX KINOMEscan (kinases); BPS Bioscience (epigenetic targets)
Experimental: as §1, §2, §3, §4

KIT(D816V) = molecular target: T7, KIT(D816V) (Homo sapiens, UniProt P10721, D816V); experiment: KINOMEscan kinase profiling; format: binding; conditions: read-out: Percent Control
T7 construct: purchased DiscoverX KINOMEscan (kinases); BPS Bioscience (epigenetic targets)
Experimental: as §1, §2, §3, §4

PIM1 = molecular target: T8, PIM1 (Homo sapiens, UniProt P11309); experiment: KINOMEscan kinase profiling; format: binding; conditions: read-out: Percent Control
T8 construct: purchased DiscoverX KINOMEscan (kinases); BPS Bioscience (epigenetic targets)
Experimental: as §1, §2, §3, §4

PIM2 = molecular target: T9, PIM2 (Homo sapiens, UniProt Q9P1W9); experiment: KINOMEscan kinase profiling; format: binding; conditions: read-out: Percent Control
T9 construct: purchased DiscoverX KINOMEscan (kinases); BPS Bioscience (epigenetic targets)
Experimental: as §1, §2, §3, §4

IKK-alpha = molecular target: T10, IKK-alpha (Homo sapiens, UniProt O15111); experiment: KINOMEscan kinase profiling; format: binding; conditions: read-out: Percent Control
T10 construct: purchased DiscoverX KINOMEscan (kinases); BPS Bioscience (epigenetic targets)
Experimental: as §1, §2, §3, §4

KIT = molecular target: T11, KIT (Homo sapiens, UniProt P10721); experiment: KINOMEscan kinase profiling; format: binding; conditions: read-out: Percent Control
T11 construct: purchased DiscoverX KINOMEscan (kinases); BPS Bioscience (epigenetic targets)
Experimental: as §1, §2, §3, §4

CSF1R = molecular target: T12, CSF1R (Homo sapiens, UniProt P07333); experiment: KINOMEscan kinase profiling; format: binding; conditions: read-out: Percent Control
T12 construct: purchased DiscoverX KINOMEscan (kinases); BPS Bioscience (epigenetic targets)
Experimental: as §1, §2, §3, §4

TGFBR1 = molecular target: T13, TGFBR1 (Homo sapiens, UniProt P36897); experiment: KINOMEscan kinase profiling; format: binding; conditions: read-out: Percent Control
T13 construct: purchased DiscoverX KINOMEscan (kinases); BPS Bioscience (epigenetic targets)
Experimental: as §1, §2, §3, §4

PAK4 = molecular target: T14, PAK4 (Homo sapiens, UniProt O96013); experiment: KINOMEscan kinase profiling; format: binding; conditions: read-out: Percent Control
T14 construct: purchased DiscoverX KINOMEscan (kinases); BPS Bioscience (epigenetic targets)
Experimental: as §1, §2, §3, §4

CHEK1 = molecular target: T15, CHEK1 (Homo sapiens, UniProt O14757); experiment: KINOMEscan kinase profiling; format: binding; conditions: read-out: Percent Control
T15 construct: purchased DiscoverX KINOMEscan (kinases); BPS Bioscience (epigenetic targets)
Experimental: as §1, §2, §3, §4

ERBB2 = molecular target: T16, ERBB2 (Homo sapiens, UniProt P04626); experiment: KINOMEscan kinase profiling; format: binding
T16 construct: purchased DiscoverRx (DiscoverX), KINOMEscan screening platform
Experimental: as §1, §2, §3, §4

PDGFRA = molecular target: T17, PDGFRA (Homo sapiens, UniProt P16234); experiment: KINOMEscan kinase profiling; format: binding; conditions: read-out: Percent Control
T17 construct: purchased DiscoverX KINOMEscan (kinases); BPS Bioscience (epigenetic targets)
Experimental: as §1, §2, §3, §4

ERBB4 = molecular target: T18, ERBB4 (Homo sapiens, UniProt Q15303); experiment: KINOMEscan kinase profiling; format: binding; conditions: read-out: Percent Control
T18 construct: purchased DiscoverX KINOMEscan (kinases); BPS Bioscience (epigenetic targets)
Experimental: as §1, §2, §3, §4

PAK2 = molecular target: T19, PAK2 (Homo sapiens, UniProt Q13177); experiment: KINOMEscan kinase profiling; format: binding; conditions: read-out: Percent Control
T19 construct: purchased DiscoverX KINOMEscan (kinases); BPS Bioscience (epigenetic targets)
Experimental: as §1, §2, §3, §4

TRKA = molecular target: T20, TRKA (Homo sapiens, UniProt P04629); experiment: KINOMEscan kinase profiling; format: binding
T20 construct: purchased DiscoverRx (DiscoverX), KINOMEscan screening platform
Experimental: as §1, §2, §3, §4

LKB1 = molecular target: T21, LKB1 (Homo sapiens, UniProt Q15831); experiment: KINOMEscan kinase profiling; format: binding; conditions: read-out: Percent Control
T21 construct: purchased DiscoverX KINOMEscan (kinases); BPS Bioscience (epigenetic targets)
Experimental: as §1, §2, §3, §4

MAPKAPK2 = molecular target: T22, MAPKAPK2 (Homo sapiens, UniProt P49137); experiment: KINOMEscan kinase profiling; format: binding; conditions: read-out: Percent Control
T22 construct: purchased DiscoverX KINOMEscan (kinases); BPS Bioscience (epigenetic targets)
Experimental: as §1, §2, §3, §4

AURKB = molecular target: T23, AURKB (Homo sapiens, UniProt Q96GD4); experiment: KINOMEscan kinase profiling; format: binding; conditions: read-out: Percent Control
T23 construct: purchased DiscoverX KINOMEscan (kinases); BPS Bioscience (epigenetic targets)
Experimental: as §1, §2, §3, §4

PDPK1 = molecular target: T24, PDPK1 (Homo sapiens, UniProt O15530); experiment: KINOMEscan kinase profiling; format: binding; conditions: read-out: Percent Control
T24 construct: purchased DiscoverX KINOMEscan (kinases); BPS Bioscience (epigenetic targets)
Experimental: as §1, §2, §3, §4

PAK1 = molecular target: T25, PAK1 (Homo sapiens, UniProt Q13153); experiment: KINOMEscan kinase profiling; format: binding; conditions: read-out: Percent Control
T25 construct: purchased DiscoverX KINOMEscan (kinases); BPS Bioscience (epigenetic targets)
Experimental: as §1, §2, §3, §4

PLK3 = molecular target: T26, PLK3 (Homo sapiens, UniProt Q9H4B4); experiment: KINOMEscan kinase profiling; format: binding; conditions: read-out: Percent Control
T26 construct: purchased DiscoverX KINOMEscan (kinases); BPS Bioscience (epigenetic targets)
Experimental: as §1, §2, §3, §4

GSK3B = molecular target: T27, GSK3B (Homo sapiens, UniProt P49841); experiment: KINOMEscan kinase profiling; format: binding; conditions: read-out: Percent Control
T27 construct: purchased DiscoverX KINOMEscan (kinases); BPS Bioscience (epigenetic targets)
Experimental: as §1, §2, §3, §4

CSNK1D = molecular target: T28, CSNK1D (Homo sapiens, UniProt P48730); experiment: KINOMEscan kinase profiling; format: binding; conditions: read-out: Percent Control
T28 construct: purchased DiscoverX KINOMEscan (kinases); BPS Bioscience (epigenetic targets)
Experimental: as §1, §2, §3, §4

[2] = molecular target: T29, JAK2(JH1domain-catalytic) (Homo sapiens, UniProt O60674); experiment: KINOMEscan kinase profiling; format: binding; conditions: read-out: Percent Control
T29 construct: JAK2(JH1domain-catalytic); purchased DiscoverX KINOMEscan (kinases); BPS Bioscience (epigenetic targets)
Experimental: as §1, §2, §3, §4

[3] = molecular target: T30, RSK2(Kin.Dom.1-N-terminal) (Homo sapiens, UniProt P51812); experiment: KINOMEscan kinase profiling; format: binding; conditions: read-out: Percent Control
T30 construct: RSK2(Kin.Dom.1-N-terminal); purchased DiscoverX KINOMEscan (kinases); BPS Bioscience (epigenetic targets)
Experimental: as §1, §2, §3, §4

MARK3 = molecular target: T31, MARK3 (Homo sapiens, UniProt P27448); experiment: KINOMEscan kinase profiling; format: binding; conditions: read-out: Percent Control
T31 construct: purchased DiscoverX KINOMEscan (kinases); BPS Bioscience (epigenetic targets)
Experimental: as §1, §2, §3, §4

CDK7 = molecular target: T32, CDK7 (Homo sapiens, UniProt P50613); experiment: KINOMEscan kinase profiling; format: binding; conditions: read-out: Percent Control
T32 construct: purchased DiscoverX KINOMEscan (kinases); BPS Bioscience (epigenetic targets)
Experimental: as §1, §2, §3, §4

MET = molecular target: T33, MET (Homo sapiens, UniProt P08581); experiment: KINOMEscan kinase profiling; format: binding; conditions: read-out: Percent Control
T33 construct: purchased DiscoverX KINOMEscan (kinases); BPS Bioscience (epigenetic targets)
Experimental: as §1, §2, §3, §4

TIE2 = molecular target: T34, TIE2 (Homo sapiens, UniProt Q02763); experiment: KINOMEscan kinase profiling; format: binding; conditions: read-out: Percent Control
T34 construct: purchased DiscoverX KINOMEscan (kinases); BPS Bioscience (epigenetic targets)
Experimental: as §1, §2, §3, §4

PKAC-alpha = molecular target: T35, PKAC-alpha (Homo sapiens, UniProt P17612); experiment: KINOMEscan kinase profiling; format: binding; conditions: read-out: Percent Control
T35 construct: purchased DiscoverX KINOMEscan (kinases); BPS Bioscience (epigenetic targets)
Experimental: as §1, §2, §3, §4

ABL1-phosphorylated = molecular target: T36, ABL1-phosphorylated (Homo sapiens, UniProt P00519); experiment: KINOMEscan kinase profiling; format: binding; conditions: read-out: Percent Control
T36 construct: purchased DiscoverX KINOMEscan (kinases); BPS Bioscience (epigenetic targets)
Experimental: as §1, §2, §3, §4

J82 = experiment: Cell proliferation assay (MTS); format: cell-based; conditions: Homo sapiens, Bladder
[4] = 10 µM, read-out: Percent Control

T16 sequence (P04626 23-1255): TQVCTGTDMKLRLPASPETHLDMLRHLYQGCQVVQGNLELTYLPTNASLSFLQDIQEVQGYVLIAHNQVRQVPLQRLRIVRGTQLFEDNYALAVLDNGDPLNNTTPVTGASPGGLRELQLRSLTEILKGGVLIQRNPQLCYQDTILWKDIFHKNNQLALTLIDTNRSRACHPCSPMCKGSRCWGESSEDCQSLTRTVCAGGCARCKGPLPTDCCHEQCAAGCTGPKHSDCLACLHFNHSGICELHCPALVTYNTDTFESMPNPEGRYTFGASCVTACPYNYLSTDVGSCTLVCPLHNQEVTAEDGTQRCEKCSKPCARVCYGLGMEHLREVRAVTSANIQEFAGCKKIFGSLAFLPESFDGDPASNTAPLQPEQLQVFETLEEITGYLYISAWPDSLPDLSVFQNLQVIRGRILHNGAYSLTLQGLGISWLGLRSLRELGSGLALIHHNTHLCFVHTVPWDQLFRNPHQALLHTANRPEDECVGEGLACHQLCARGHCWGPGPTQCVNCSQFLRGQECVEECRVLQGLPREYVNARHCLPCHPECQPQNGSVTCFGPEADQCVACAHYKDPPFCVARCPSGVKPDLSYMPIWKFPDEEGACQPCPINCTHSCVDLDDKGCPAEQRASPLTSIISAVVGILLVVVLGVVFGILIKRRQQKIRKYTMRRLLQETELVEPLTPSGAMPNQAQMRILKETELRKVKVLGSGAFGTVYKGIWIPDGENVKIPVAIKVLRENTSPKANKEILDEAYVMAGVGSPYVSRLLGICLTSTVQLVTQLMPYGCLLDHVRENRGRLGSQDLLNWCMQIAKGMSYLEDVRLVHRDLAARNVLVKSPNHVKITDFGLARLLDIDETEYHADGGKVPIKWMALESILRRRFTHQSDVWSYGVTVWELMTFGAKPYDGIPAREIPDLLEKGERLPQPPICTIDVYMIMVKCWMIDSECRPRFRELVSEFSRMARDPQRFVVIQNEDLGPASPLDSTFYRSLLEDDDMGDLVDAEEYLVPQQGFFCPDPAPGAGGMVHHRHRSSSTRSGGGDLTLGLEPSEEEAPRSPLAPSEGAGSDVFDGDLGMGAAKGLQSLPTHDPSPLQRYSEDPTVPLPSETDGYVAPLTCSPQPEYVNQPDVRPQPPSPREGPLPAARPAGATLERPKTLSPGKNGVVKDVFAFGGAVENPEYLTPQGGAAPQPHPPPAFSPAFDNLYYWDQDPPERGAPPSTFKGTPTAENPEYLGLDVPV
T20 sequence (P04629 33-796): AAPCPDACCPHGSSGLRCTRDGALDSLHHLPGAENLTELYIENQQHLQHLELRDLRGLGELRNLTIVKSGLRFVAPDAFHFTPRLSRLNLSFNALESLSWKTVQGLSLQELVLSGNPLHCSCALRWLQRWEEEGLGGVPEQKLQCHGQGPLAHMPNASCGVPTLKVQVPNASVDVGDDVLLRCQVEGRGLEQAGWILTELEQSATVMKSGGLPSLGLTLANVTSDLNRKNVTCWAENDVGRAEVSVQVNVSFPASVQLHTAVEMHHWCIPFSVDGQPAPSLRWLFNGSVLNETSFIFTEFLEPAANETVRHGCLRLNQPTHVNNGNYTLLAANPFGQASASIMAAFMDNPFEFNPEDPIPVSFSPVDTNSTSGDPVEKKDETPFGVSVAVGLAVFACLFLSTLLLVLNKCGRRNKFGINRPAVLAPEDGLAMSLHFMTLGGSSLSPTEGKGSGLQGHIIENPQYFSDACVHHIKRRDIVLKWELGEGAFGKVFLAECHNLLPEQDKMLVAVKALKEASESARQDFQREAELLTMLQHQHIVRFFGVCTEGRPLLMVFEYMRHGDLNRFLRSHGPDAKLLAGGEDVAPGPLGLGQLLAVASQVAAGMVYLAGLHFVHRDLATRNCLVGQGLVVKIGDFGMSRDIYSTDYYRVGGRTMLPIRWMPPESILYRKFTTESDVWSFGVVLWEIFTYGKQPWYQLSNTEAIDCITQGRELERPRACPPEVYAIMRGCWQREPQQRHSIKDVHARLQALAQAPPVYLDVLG
T3 sequence (P53779 whole entry): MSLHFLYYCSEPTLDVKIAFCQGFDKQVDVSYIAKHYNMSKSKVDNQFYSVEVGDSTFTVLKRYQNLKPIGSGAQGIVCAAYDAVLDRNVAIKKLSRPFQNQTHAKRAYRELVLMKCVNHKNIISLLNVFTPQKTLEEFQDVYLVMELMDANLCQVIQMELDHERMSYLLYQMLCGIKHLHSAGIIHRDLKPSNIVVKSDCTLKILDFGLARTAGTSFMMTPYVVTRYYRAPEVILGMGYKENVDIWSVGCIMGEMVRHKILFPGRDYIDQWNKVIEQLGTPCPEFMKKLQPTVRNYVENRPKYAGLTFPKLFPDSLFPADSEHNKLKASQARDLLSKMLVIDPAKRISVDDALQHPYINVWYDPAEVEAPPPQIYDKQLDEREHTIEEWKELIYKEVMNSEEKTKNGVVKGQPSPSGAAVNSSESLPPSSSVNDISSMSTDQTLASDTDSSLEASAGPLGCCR
T28 sequence (P48730 whole entry): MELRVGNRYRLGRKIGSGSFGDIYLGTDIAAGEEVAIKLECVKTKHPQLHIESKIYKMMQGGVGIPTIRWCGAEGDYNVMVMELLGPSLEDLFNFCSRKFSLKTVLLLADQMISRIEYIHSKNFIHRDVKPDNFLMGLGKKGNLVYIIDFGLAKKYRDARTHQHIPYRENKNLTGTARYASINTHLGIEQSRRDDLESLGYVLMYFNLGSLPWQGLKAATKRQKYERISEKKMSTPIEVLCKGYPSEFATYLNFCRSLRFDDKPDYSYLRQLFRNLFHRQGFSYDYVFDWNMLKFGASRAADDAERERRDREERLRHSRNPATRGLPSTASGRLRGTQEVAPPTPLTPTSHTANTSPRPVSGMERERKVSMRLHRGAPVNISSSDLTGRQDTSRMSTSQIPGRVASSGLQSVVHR
T31 sequence (P27448 whole entry): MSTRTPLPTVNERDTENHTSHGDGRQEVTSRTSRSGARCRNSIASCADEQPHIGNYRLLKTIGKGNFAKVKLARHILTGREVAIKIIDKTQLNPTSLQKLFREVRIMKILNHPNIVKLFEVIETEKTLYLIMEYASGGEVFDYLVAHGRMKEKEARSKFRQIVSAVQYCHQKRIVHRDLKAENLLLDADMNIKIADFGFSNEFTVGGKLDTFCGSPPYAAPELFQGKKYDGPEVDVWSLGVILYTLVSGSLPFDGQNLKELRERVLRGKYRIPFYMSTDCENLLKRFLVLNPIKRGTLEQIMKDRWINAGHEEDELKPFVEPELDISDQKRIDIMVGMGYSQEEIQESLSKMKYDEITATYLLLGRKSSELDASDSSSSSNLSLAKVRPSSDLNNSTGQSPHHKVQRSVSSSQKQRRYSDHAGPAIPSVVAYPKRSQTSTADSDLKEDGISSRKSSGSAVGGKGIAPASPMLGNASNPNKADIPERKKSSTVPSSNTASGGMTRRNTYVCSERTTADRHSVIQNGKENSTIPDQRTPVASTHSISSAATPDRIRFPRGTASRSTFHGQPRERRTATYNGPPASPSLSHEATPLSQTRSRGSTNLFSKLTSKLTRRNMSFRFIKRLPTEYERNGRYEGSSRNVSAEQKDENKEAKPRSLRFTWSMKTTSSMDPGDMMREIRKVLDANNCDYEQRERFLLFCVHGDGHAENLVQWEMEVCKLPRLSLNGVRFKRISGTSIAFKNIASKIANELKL
T5 sequence (P29597 888-1187 limits assumed): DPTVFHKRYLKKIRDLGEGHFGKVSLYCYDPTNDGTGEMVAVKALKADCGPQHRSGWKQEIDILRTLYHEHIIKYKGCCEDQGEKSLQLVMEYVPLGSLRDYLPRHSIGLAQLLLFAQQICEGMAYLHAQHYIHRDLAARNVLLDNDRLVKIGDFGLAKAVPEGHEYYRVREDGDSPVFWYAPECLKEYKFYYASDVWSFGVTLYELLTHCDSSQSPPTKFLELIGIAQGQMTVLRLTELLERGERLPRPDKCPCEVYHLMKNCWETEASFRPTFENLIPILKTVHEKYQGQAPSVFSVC
T12 sequence (P07333 20-972): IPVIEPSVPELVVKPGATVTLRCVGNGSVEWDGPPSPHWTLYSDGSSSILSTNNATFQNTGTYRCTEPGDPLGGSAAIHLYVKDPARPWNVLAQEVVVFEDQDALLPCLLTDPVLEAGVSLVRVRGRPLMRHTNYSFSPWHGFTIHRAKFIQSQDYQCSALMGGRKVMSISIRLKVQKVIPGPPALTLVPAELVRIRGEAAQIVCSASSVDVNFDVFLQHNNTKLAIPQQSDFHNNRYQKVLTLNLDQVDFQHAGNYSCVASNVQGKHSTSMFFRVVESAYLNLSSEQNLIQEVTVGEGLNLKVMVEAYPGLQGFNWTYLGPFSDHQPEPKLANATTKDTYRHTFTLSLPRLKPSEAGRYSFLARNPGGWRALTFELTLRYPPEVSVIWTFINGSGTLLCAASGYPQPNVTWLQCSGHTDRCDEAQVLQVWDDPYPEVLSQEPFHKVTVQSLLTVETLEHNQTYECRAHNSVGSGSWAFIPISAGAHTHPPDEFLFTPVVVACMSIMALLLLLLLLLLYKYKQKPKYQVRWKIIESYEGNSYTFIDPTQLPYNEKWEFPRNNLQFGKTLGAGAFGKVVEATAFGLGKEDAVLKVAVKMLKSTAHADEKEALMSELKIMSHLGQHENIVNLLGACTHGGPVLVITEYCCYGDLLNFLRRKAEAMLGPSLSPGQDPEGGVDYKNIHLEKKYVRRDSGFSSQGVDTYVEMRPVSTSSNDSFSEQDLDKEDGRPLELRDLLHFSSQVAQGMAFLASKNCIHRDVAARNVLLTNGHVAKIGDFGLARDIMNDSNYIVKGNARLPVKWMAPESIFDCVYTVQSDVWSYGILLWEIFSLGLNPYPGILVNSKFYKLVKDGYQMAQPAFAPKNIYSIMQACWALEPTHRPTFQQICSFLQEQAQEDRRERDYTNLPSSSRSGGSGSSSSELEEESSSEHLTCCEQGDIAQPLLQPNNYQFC

COc1cc2c(NC3CCN(C)CC3)cc(-c3ccc(C)o3)nc2cc1OCCCN1CCCC1 [CM-272, 6-methoxy-2-(5-methyl-2-furyl)-N-(1-methyl-4-piperidyl)-7-(3-pyrrolidin-1-ylpropoxy)quinolin-4-amine]
GI50 (SU-DHL-8): 1950 nM | GI50 (H209): 1150 nM | remaining binding at 10 µM (EGFR): 100% | remaining binding at 10 µM (BRAF): 14% | remaining binding at 10 µM (JNK3): 8.9% | remaining binding at 10 µM (FAK): 96% | remaining binding at 10 µM [1]: 22% | remaining binding at 10 µM (ACVR1B): 81% | remaining binding at 10 µM (KIT(D816V)): 100% | remaining binding at 10 µM (PIM1): 93% | remaining binding at 10 µM (PIM2): 93% | remaining binding at 10 µM (IKK-alpha): 45% | remaining binding at 10 µM (KIT): 100% | remaining binding at 10 µM (CSF1R): 100% | remaining binding at 10 µM (TGFBR1): 78% | remaining binding at 10 µM (PAK4): 100% | remaining binding at 10 µM (CHEK1): 99% | remaining binding at 10 µM (ERBB2; [4]): 0% | Kd (ERBB2; KINOMEscan): 1600 nM | remaining binding at 10 µM (PDGFRA): 14% | remaining binding at 10 µM (ERBB4): 97% | remaining binding at 10 µM (PAK2): 67% | remaining binding at 10 µM (TRKA; [4]): 0% | Kd (TRKA; KINOMEscan): 1100 nM | remaining binding at 10 µM (LKB1): 100% | remaining binding at 10 µM (MAPKAPK2): 87% | remaining binding at 10 µM (AURKB): 61% | remaining binding at 10 µM (PDPK1): 100% | remaining binding at 10 µM (PAK1): 69% | remaining binding at 10 µM (PLK3): 73% | remaining binding at 10 µM (GSK3B): 61% | remaining binding at 10 µM (CSNK1D): 95% | remaining binding at 10 µM [2]: 10% | remaining binding at 10 µM [3]: 46% | remaining binding at 10 µM (MARK3): 100% | remaining binding at 10 µM (CDK7): 53% | remaining binding at 10 µM (MET): 91% | remaining binding at 10 µM (TIE2): 90% | remaining binding at 10 µM (PKAC-alpha): 100% | remaining binding at 10 µM (ABL1-phosphorylated): 4.8% | GI50 (J82): > 10 µM
